In test [1] the test system is IL-6 induced pSTAT3 in retina/choroid. The test is described as follows: Assay 13: Pharmacodynamic assay: inhibition of IL6-induced pSTAT3 in rats. Format: in vivo, Lewis rats. As to conditions: rat, IVT suspension of crystalline compound 1 of Example 2, 15 μg dose, 3 day pre-treatment. As for the experimental part: The ability of a single intravitreal administration of test compound to inhibit IL-6 induced pSTAT3 was measured in rat retina/choroid homogenates.
Suspension formulations were prepared by combining crystalline compound 1 of Example 2 with 0.5% hydroxypropyl methylcellulose (HPMC E5 LV), 0.02% Tween 80, and 0.9% sodium chloride in purified water to attain target concentrations of 3 mg/mL and 10 mg/mL.
Female Lewis rats were intravitreally (IVT) dosed (5 μL per eye) with the suspension formulations or with the drug vehicle. Three days later, IL-6 (Peprotech; 0.1 mg/mL; 5 μL per eye) or vehicle was intravitreally administered to induce pSTAT3.
Ocular tissues were dissected one hour after the second IVT injection with IL-6. The retina/choroid tissues were homogenized and pSTAT3 levels were measured using an ELISA (Cell Signaling Technology). The percent inhibition of IL-6-induced pSTAT3 was calculated in comparison to the vehicle/vehicle and vehicle/IL-6 groups. Inhibition of greater than 100% reflects a reduction of pSTAT3 levels to below those observed in the vehicle/vehicle group.

Test [2] deals with IL-5 mediated survival of human eosinophils. Description: Assay 16: IL-5 mediated eosinophil survival assay. It counts as cell-based. The following applies: 72 h, read-out: pIC50, IL-5 mediated eosinophil survival (cell viability) (converted). The protocol: The potency of the test compound for IL-5 mediated eosinophil survival was measured in human eosinophils isolated from human whole blood (AllCells). Because IL-5 signals through JAK, this assay provides a measure of JAK cellular potency. Human eosinophils were isolated from fresh human whole blood (AllCells) of healthy donors. Blood was mixed with 4.5% Dextran (Sigma-Aldrich) in a 0.9% sodium chloride solution (Sigma-Aldrich). Red blood cells were left to sediment for 35 minutes. The leukocyte rich upper layer was removed and layered over Ficoll-Paque (GE Healthcare) and centrifuged at 600 g for 30 minutes. The plasma and mononuclear cell layers were removed before the granulocyte layer was lysed with water to remove any contaminating red blood cells. […] Purity was analyzed using a LSRII flow cytometer (BD Biosciences). […]
After cytokine stimulation, cells were centrifuged at 300 g for 5 min and washed twice with cold DPBS (Life Technologies). To access viability and apoptosis, cells were incubated with Propidium Iodide (Thermo Fisher Scientific) and APC Annexin V (BD Biosciences) and analyzed using a LSRII flow cytometer (BD Biosciences). IC50 values were determined from analysis of the viability curves of percent cell viability vs compound concentration. Data are expressed as pIC50 (negative decadic logarithm IC50) values.

The next test has as its target T1, JAK1 (Homo sapiens, UniProt P23458).
T1 construct: GST; purchased Life Technologies
The test is described as follows: Assay 1: LanthaScreen biochemical JAK kinase assay, JAK1. As to conditions: converted from pIC50 by Cheng-Prusoff; ATP at Km 25 μM; read-out: JAK 1 pKi (converted). The protocol:
A panel of four LanthaScreen JAK biochemical assays (JAK1, 2, 3 and Tyk2) were carried in a common kinase reaction buffer (50 mM HEPES, pH 7.5, 0.01% Brij-35, 10 mM MgCl2, and 1 mM EGTA). Recombinant GST-tagged JAK enzymes and a GFP-tagged STAT1 peptide substrate were obtained from Life Technologies.
The serially diluted compound was pre-incubated with each of the four JAK enzymes and the substrate in white 384-well microplates (Corning) at ambient temperature for lh. ATP was subsequently added to initiate the kinase reactions in 10 μL total volume, with 1% DMSO. […] The plates were allowed to incubate at ambient temperature for lh before being read on the EnVision reader (Perkin Elmer). Emission ratio signals (520 nm/495 nm) were recorded and utilized to calculate the percent inhibition values based on DMSO and background controls.
For dose-response analysis, percent inhibition data were plotted vs. compound concentrations, and IC50 values were determined from a 4-parameter robust fit model with the Prism software (GraphPad Software). Results were expressed as pIC50 (negative logarithm of IC50) and subsequently converted to pK1 (negative logarithm of dissociation constant, Ki) using the Cheng-Prusoff equation.
(In TR-FRET formats the signal depends on donor and acceptor labels being close together.)

This is an account of results in patent US10251874B2, “Crystalline forms of a JAK inhibitor compound” (THERAVANCE BIOPHARMA R&D IP, LLC, priority 2017, dated 2019).

Like-named read-outs stand apart in the source and are kept apart here.

T1 sequence (P23458 whole entry): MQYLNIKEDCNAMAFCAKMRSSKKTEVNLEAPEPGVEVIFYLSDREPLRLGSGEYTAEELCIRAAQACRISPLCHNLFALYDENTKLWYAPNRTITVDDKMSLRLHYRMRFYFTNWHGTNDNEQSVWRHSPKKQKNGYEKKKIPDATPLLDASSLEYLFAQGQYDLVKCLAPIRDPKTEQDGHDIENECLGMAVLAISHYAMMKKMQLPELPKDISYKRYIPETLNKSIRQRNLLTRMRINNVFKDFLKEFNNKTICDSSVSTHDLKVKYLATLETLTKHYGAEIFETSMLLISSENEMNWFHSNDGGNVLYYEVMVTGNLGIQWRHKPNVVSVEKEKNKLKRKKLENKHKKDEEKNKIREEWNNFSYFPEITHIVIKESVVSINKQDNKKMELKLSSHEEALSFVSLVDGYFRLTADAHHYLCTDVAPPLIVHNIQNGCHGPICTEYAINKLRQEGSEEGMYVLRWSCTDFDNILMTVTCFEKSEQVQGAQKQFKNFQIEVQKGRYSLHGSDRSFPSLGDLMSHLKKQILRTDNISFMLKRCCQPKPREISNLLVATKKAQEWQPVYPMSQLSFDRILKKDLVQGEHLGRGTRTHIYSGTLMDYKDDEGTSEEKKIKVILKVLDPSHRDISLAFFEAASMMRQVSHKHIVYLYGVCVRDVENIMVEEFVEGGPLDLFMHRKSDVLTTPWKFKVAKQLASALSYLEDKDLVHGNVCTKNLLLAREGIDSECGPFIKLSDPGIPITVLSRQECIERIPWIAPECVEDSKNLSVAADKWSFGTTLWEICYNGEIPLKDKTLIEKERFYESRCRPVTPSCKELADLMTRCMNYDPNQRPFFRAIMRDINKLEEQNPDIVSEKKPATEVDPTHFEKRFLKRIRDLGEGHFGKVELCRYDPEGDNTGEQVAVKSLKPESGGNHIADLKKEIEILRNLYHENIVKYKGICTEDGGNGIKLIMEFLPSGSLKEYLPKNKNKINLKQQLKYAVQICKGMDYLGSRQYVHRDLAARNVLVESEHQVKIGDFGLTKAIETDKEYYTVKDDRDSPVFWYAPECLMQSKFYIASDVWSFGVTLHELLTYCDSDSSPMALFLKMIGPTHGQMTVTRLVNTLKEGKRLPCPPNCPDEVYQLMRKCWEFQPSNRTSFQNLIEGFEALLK

For `CCc1cc(O)c(F)cc1-c1ccc2c(-c3nc4c([nH]3)CCN(C3CCN(C)CC3)C4)n[nH]c2c1` [Compound 1, 5-ethyl-2-fluoro-4-(3-(5-(1-methylpiperidin-4-yl)-4,5,6,7-tetrahydro-1H-imidazo[4,5-c]pyridin-2-yl)-1H-indazol-6-yl)phenol], the “inhibition of IL-6-induced pSTAT3 in retina/choroid tissues” value in test [1] was 33%. Moreover, the IC50 in test [2] (in the presence of 10 pg/ml IL-5, 72 hours) was 12.6 nM; in test [2] (in the presence of 1 ng/ml IL-5, 72 hours) it was 316 nM. In addition, the Ki on JAK1 is 0.0631 nM.
